Assay results from patent US20040242485A1, “Compositions and methods for the amelioration of leptin resistance” (priority 2003, published 2004).

What was measured:
Assay type in all cases: in vivo, mouse
[1] = amelioration of leptin resistance (food intake and body weight after leptin) by β3 adrenergic receptor agonist in IR S-2 knockout mice; details: repeated intraperitoneal administration for 2 weeks, then leptin 20 mg/kg intraperitoneally, 12 hours after leptin, FIG. 4
Experimental: Moreover, as a control, for the case without intraperitoneal administration of leptin, in which 10 ml/kg of body weight of Tragacanth gum was repeatedly administered orally for 2 weeks, or in which 10 ml/kg of body weight of physiological saline solution was repeatedly intraperitoneally administered for 2 weeks instead of CL-316243, the changes in the amount of food intake, and the changes in body weight (%) were measured.

[2] = changes in body weight after intraperitoneal administration of leptin, wild-type mice; details: 8-week wild-type mice; leptin 10 mg/kg of body weight intraperitoneally; 12 hours after administration; FIG. 1
Experimental: For the case where 10 mg/kg of body weight of leptin was intraperitoneally administered into the 8-week wild-type mouse, followed by food intake, the changes in body weight (%) after 12 hours of administration of leptin were measured. Moreover, (i) for the case where 10 mg/kg of body weight or 50 mg/kg of body weight of leptin was intraperitoneally administered into the 8-week IR S-2 knockout mouse, followed by food intake, the changes in body weight (%) after 12 hours of administration of leptin were measured. Furthermore, as a control, for the case where physiological saline was administered instead of leptin to the 8-week wild-type and IR S-2 knockout mice, the changes in body weight (%) were measured. In FIG. 1, (a) is a result for the case in which the physiological saline was administered; (b) is a result for the case in which […] of body weight of leptin was intraperitoneally administered; and (c) is a result for the case in which […] of body weight of leptin was intraperitoneally administered. In FIG. 1, as well as in other figures, the values are expressed as means±S.E. (n=5−9); **, p<0.01; ***, p<0.001; and “N.S.” not significant. The statistical significances of the differences in body weight, etc. were determined by Student's t test (two-tailed).

[3] = changes in body weight after intraperitoneal administration of leptin, IR S-2 knockout mice; details: 8-week IR S-2 knockout mice, 12 hours after administration, FIG. 1
Excerpt: Insulin receptor substrate-2 (IR S-2) knockout mice were produced according to Kubota N. et al., Diabetes, November 2000, 49(11), 1880-9. Then, the IR S-2 gene (shown in the upper portion of FIG. 5) was screened from the mouse genome DNA library, and a targeting vector indicated in the middle of FIG. 5 was produced. The targeting vector was introduced into the TT2 ES cell, and ES cell clone with a recombinant was selected (shown in the lower portion of FIG. 5), which was introduced into the 8-celled embryo, thereby obtaining a chimera organism. […]
For the case where 10 mg/kg of body weight of leptin was intraperitoneally administered into the 8-week wild-type mouse, followed by food intake, the changes in body weight (%) after 12 hours of administration of leptin were measured. Moreover, (i) for the case where 10 mg/kg of body weight or 50 mg/kg of body weight of leptin was intraperitoneally administered into the 8-week IR S-2 knockout mouse, followed by food intake, the changes in body weight (%) after 12 hours of administration of leptin were measured. Furthermore, as a control, for the case where physiological saline was administered instead of leptin to the 8-week wild-type and IR S-2 knockout mice, the changes in body weight (%) were measured. […] The statistical significances of the differences in body weight, etc. were determined by Student's t test (two-tailed).

[4] = changes in body weight after continuous ventricular administration of leptin, wild-type mice; details: 14-week wild-type mice; continuous ventricular leptin 10 ng/hr; after one week; FIG. 2
Experimental: (§1) In a case where a canula was implanted ventricuarly to a 14-week wild-type mouse, and after starting the continuous ventricular administration of leptin (10 ng/hr), followed by food intake at will, the changes in body weigh (%) were measured after one week of said leptin administration.

[5] = changes in body weight after continuous ventricular administration of leptin, IR S-2 knockout mice; details: continuous ventricular leptin 10 ng/hr, after one week, FIG. 2
Excerpt: Insulin receptor substrate-2 (IR S-2) knockout mice were produced according to Kubota N. et al., Diabetes, November 2000, 49(11), 1880-9. Then, the IR S-2 gene (shown in the upper portion of FIG. 5) was screened from the mouse genome DNA library, and a targeting vector indicated in the middle of FIG. 5 was produced. The targeting vector was introduced into the TT2 ES cell, and ES cell clone with a recombinant was selected (shown in the lower portion of FIG. 5), which was introduced into the 8-celled embryo, thereby obtaining a chimera organism. A male chimeric organism was bred with a C57BL/6J female, thereby obtaining hetero-IR S-2 knockout mice, in which a recombinant gene has been introduced into the germ line. These hetero-knockout mice were bred with each other, thereby obtaining homo-IR S-2 knockout mice.
as §1

Compound	leptin resistance (changes in food intake (%) and body weight (%) after leptin) [1]	changes in body weight (%) [2]	changes in body weight (%) ([3]; leptin 10 mg/kg of body weight intraperitoneally)	changes in body weight (%) ([3]; leptin 50 mg/kg of body weight intraperitoneally)	changes in body weight (%) [4]	changes in body weight (%) [5]
CC(Cc1ccc2c(c1)OC(C(=O)[O-])(C(=O)[O-])O2)NCC(O)c1cccc(Cl)c1.[Na+].[Na+] (stereo not drawn) [CL-316243]	leptin resistance in IR S-2 knockout mice is ameliorated					
leptin: hormone secreted from adipose tissues, regulates appetite and energy metabolism		significant reduction in weight was observed	significant reduction in weight was not observed	significant reduction in weight was not observed	significant reduction in weight was observed	significant reduction in weight was not observed
